Converted amounts (≈) assume the structure as drawn.
What was measured:
[1] = test system: Raw 264.7 cells; assay: Cytotoxicity in Raw 264.7 cells (MTT assay); assay type: cell-based; design: unit not given here; settings: highest concentration 500 μM
Description: (§1) The cytotoxicity of NP-16 and some of it analogues in Raw 264.7 cells was also evaluated by MTT (3-[4,5-dimethylthiazol-2-yl]-2,5-diphenyltetrazolium bromide) assay according to manufacturer's instructions. A toxic control (1%) SDS was included to ensure the MTT assay was working properly. The highest concentration of NP-16 analogues used was 500 μM due to solubility limitations. SigmaPlot 11.0 (SPSS, IL) was used for graph plotting. Experiments were carried out in triplicate and repeated twice.
(§2) The cytotoxicity of NP-16 and some of it analogues was tested against Raw 264.7 cells, and the cell tolerance of each compounds were documented in Table 3. Along with the in vitro staphyloxanthin production of the NP-16 analogues were being tested, the compounds can exert staphyloxanthin production inhibition. The staphyloxanthin from the overnight-cultured bacteria were extracted with methanol and quantified in via spectrophotometry. The results were presented in relative ratio to NP-16 in both the inhibition ratio as well as the TC50 in Table 3 (compound/analogue numbers correspond to those listed in Table 1).

[2] = test system: MDCK cells; assay: Cytotoxicity in MDCK cells (MTT assay); assay type: cell-based; settings: up to 500 μM
Description: (§3) The cytotoxicity of NP16 in MDCK cells was evaluated by MTT (3-[4,5-dimethylthiazol-2-yl]-2,5-diphenyltetrazolium bromide) assay according to manufacturer's instructions. A toxic control (1%) SDS was included to ensure the MTT assay was effective. The highest concentration of NP16 that could be used was 500 μM due to solubility limitations. SigmaPlot 11.0 (SPSS, IL) was used for graph plotting. Experiments were repeated twice in triplicate.
(§4) The IC50 values were obtained by fitting the inhibition data to a normal dose-response curve in SigmaPlot (CA).

[3] = Solubility limit in cytotoxicity testing; assay type: physicochemical; settings: cytotoxicity (MTT) assay medium; read-out: Highest concentration that could be used due to solubility limitations
Description: as §3, §1

[4] = test system: S. aureus pigment formation (staphyloxanthin production); assay: In vitro pigment inhibition / staphyloxanthin production in S. aureus; assay type: cell-based, Staphylococcus aureus; settings: S. aureus USA300, staphyloxanthin methanol extract OD 450 nm, compounds 300 nM to 700 nM, NP16 = 1
Description: S. aureus was propagated in Brain Heart Infusion broth (BHI) or on BHI agar (Oxoid). The in vitro pigment inhibition studies were performed by S. aureus USA300 cultured in BHI with or without the presence of inhibitor compounds at 37° C. and 250 rpm for 36-48 hours. The bacteria were washed twice with PBS prior to the staphyloxanthin purification with methanol. The OD of the extracts were monitor at 450 nm using DTX880 multi-plate reader spectrophotometer (Beckman). The concentration range tested for the compounds were between 300 nM to 700 nM, and control groups were added with equal volume of DMSO.
as §4, §2

[5] = target: 4,4-diapophytoene desaturase (CrtN) (Staphylococcus aureus, UniProt Q7A3E2); settings: reference [5]; cited from earlier work
[6] = test system: polymorphonuclear leukocytes; settings: at high concentrations, reference [14]; cited from earlier work

Chain of 4,4-diapophytoene desaturase (CrtN) (Q7A3E2 whole entry): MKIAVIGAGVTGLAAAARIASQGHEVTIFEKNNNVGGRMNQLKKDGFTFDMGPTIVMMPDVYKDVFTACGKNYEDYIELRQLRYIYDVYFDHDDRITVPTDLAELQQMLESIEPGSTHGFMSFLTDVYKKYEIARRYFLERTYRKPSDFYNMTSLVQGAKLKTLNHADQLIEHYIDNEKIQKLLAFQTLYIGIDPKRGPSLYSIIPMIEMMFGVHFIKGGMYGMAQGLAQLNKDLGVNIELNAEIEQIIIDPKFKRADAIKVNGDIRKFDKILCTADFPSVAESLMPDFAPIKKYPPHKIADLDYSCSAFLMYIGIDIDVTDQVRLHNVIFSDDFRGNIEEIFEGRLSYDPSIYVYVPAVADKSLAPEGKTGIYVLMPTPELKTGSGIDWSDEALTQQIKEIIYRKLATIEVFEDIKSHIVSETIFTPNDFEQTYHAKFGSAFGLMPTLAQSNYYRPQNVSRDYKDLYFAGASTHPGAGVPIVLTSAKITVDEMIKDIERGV

SMILES | TC50 to Raw 264.7 cells [1] | Relative ratio to NP16 based on inhibition ratio [4] | other results
O=C(/C=C/c1ccccc1)Nc1ccc(S(=O)(=O)N2CCCC2)cc1 [Compound 1, 3-phenyl-N-[4-(1-pyrrolidinylsulfonyl)phenyl]acryl-amide] | >200 |  | Effect on the growth of MDCK cells [2]: no effect; solubility [3]: 500 µM (≈ 178 µg/mL)
O=C(/C=C/c1cccc(Br)c1)Nc1ccc(S(=O)(=O)N2CCCC2)cc1 [Compound 11, 3-(5-bromophenyl)-N-[4-(1-pyrrolidinylsulfonyl)phenyl]acryl-amide] | >200 | 1.03 | 
O=C(/C=C/c1ccccc1Br)Nc1ccc(S(=O)(=O)N2CCCC2)cc1 [Compound 12, 3-(6-bromophenyl)-N-[4-(1-pyrrolidinylsulfonyl)phenyl]acryl-amide] | >200 | 2.35 | 
O=C(/C=C/c1ccc(Br)cc1)Nc1ccc(S(=O)(=O)N2CCCC2)cc1 [Compound 13, 3-(4-bromophenyl)-N-[4-(1-pyrrolidinylsulfonyl)phenyl]acryl-amide] | >200 | 0.25 | 
Cc1ccc(/C=C/C(=O)Nc2ccc(S(=O)(=O)N3CCCC3)cc2)cc1 [Compound 14, 3-(4-methylphenyl)-N-[4-(1-pyrrolidinylsulfonyl)phenyl]acryl-amide] | >200 | 0.83 | 
Cc1ccccc1/C=C/C(=O)Nc1ccc(S(=O)(=O)N2CCCC2)cc1 [Compound 15, 3-(6-methylphenyl)-N-[4-(1-pyrrolidinylsulfonyl)phenyl]acryl-amide] | >200 | 1.73 | 
O=C(/C=C/c1ccc(O)cc1)Nc1ccc(S(=O)(=O)N2CCCC2)cc1 [Compound 16, 3-(4-hydroxylphenyl)-N-[4-(1-pyrrolidinylsulfonyl)phenyl]acryl-amide] | 75 | 0.33 | 
CC(=O)Oc1cccc(/C=C/C(=O)Nc2ccc(S(=O)(=O)N3CCCC3)cc2)c1 [Compound 17, 3-(5-acetoxylphenyl)-N-[4-(1-pyrrolidinylsulfonyl)phenyl]acryl-amide] | ~75 | 0.58 | 
CC(=O)Oc1ccccc1/C=C/C(=O)Nc1ccc(S(=O)(=O)N2CCCC2)cc1 [Compound 18, 3-(6-acetoxylphenyl)-N-[4-(1-pyrrolidinylsulfonyl)phenyl]acryl-amide] | ~150 | 0.35 | 
CC(=O)Oc1ccc(/C=C/C(=O)Nc2ccc(S(=O)(=O)N3CCCC3)cc2)cc1 [Compound 19, 3-(4-acetoxylphenyl)-N-[4-(1-pyrrolidinylsulfonyl)phenyl]acryl-amide] | ~150 | 0.86 | 
O=C(/C=C/c1cccc(-c2ccccc2)c1)Nc1ccc(S(=O)(=O)N2CCCC2)cc1 [Compound 20, 3-(5-phenylphenyl)-N-[4-(1-pyrrolidinylsulfonyl)phenyl]acryl-amide] | >200 | 0.61 | 
c1ccc(Nc2ccccc2)cc1 [Diphenylamine] |  |  | Inhibition of CrtN [5]: high micromolar level
CN(C/C=C/c1ccccc1)Cc1cccc2ccccc12 [naftifine] |  |  | Chemotaxis, chemokinesis, chemiluminescence and superoxide anion production of polymorphonuclear leukocytes [6]: suppress

Reference: patent US11446280B2, “Compounds and methods for the treatment of microbial infections” (Versitech Limited, priority 2017, dated 2022)
